# Test results taken from ChEMBL document CHEMBL3507680, “University of Dundee, Gates Library screen for HepG2 cell viability”.
# Test: Human HepG2 cell viability assay in 384 well format
# Assay type: toxicity, cell-based
# Design: dose 125 nL, time 70.5 hour; cytotoxicity at 70.5 h: concentration not given beside the values
# Conditions: HepG2 cells, read-out: Inhibition
smiles,measurement,value
C1CN(CCN2CCOCC2)CCN1,cytotoxicity at 70.5 h,-0.136%
Cc1cc2nc(-c3ccccc3)cc(NCC3CCCOC3)n2n1 (stereo not drawn),cytotoxicity at 70.5 h,0.476%
CN(C)C(=O)NCC(=O)N(C)Cc1cc(-c2ccccc2)no1,cytotoxicity at 70.5 h,22%
CCC(C)CN1CCC(n2cc(C3CCCC3)nn2)CC1 (stereo not drawn),cytotoxicity at 70.5 h,0.72%
CCc1cc(N[C@H]2CC[C@@H](N)CC2)n2nc(C)c(C)c2n1,cytotoxicity at 70.5 h,-7.71%
COc1cccc(Cn2cc(C3=CCN(CC(=O)N(C)C)CC3)cn2)c1,cytotoxicity at 70.5 h,-16.4%
CC(C)(C)c1ccc(-c2n[nH]c3c2CN(CC2CCOC2)CC3)cc1 (stereo not drawn),cytotoxicity at 70.5 h,-12%
Cc1cc(CN2CCC(CNC(=O)CN3CCCCCC3)C2)[nH]n1 (stereo not drawn),cytotoxicity at 70.5 h,14.2%
CCCNC(=O)c1ccc(S(=O)(=O)NC2(COC)CCCC2)cc1,cytotoxicity at 70.5 h,-5.28%
Cn1ccc2c(-c3cc(N4CCOCC4)ncn3)ccnc21,cytotoxicity at 70.5 h,-6.11%
CN(C)C(=O)CN1C(=O)[C@H]2CC[C@@H]1CN(Cc1ccccc1C#N)C2,cytotoxicity at 70.5 h,-4.2%
COCCN1CCC(CN(CC2CCCO2)C(=O)CNC(C)=O)CC1 (stereo not drawn),cytotoxicity at 70.5 h,-1.99%
CCCN(Cc1nc2ccccc2[nH]1)Cc1ccccc1OC,cytotoxicity at 70.5 h,-4%
CCC[C@@H]1CN(C(=O)CCc2ccco2)C[C@H]1NS(C)(=O)=O,cytotoxicity at 70.5 h,29%
CC(C)=CCn1ncc(N2CCCCC2)cc1=O,cytotoxicity at 70.5 h,-3.13%
Nc1nc2c(c(N3CCCC(c4nnc5ccccn45)C3)n1)CCNC2 (stereo not drawn),cytotoxicity at 70.5 h,-2.11%
CCc1oc(C(=O)N(C)Cc2nonc2C)cc1CN(CC)CC,cytotoxicity at 70.5 h,-16.6%
CCN1CC(C(=O)N2CCN(c3nsc4ccccc34)CC2)CCC1=O (stereo not drawn),cytotoxicity at 70.5 h,19.6%
COc1cccc(C(C(=O)O)N2CCSCC2)c1F (stereo not drawn),cytotoxicity at 70.5 h,13%
Cc1nc(N2CCC(C(O)c3nccn3C)CC2)c2c(C)noc2n1 (stereo not drawn),cytotoxicity at 70.5 h,20.2%
Cc1c(-c2cnn(C)c2)nc(N)c(C#N)c1-c1ccc(CO)o1,cytotoxicity at 70.5 h,2.44%
CC1(C)CNC(=O)c2nc(CCCN3CCCC3)[nH]c2C1,cytotoxicity at 70.5 h,-8.44%
CC(C)[C@H]1CN(c2ccnc(N)n2)C[C@@H]1NC(=O)C1(C#N)CCOCC1,cytotoxicity at 70.5 h,-9.5%
CC(C)c1nnsc1CNC(=O)C1CCCN(C(=O)N(C)C)C1 (stereo not drawn),cytotoxicity at 70.5 h,-11.2%
CN(Cc1noc2c1CCCC2)C(=O)C1CCOc2ccccc2C1 (stereo not drawn),cytotoxicity at 70.5 h,-3.46%
CCc1cc(N(C)Cc2noc(C(C)C)n2)nc(N2CCOCC2)n1,cytotoxicity at 70.5 h,-13.5%
CCCC1(CO)CCCN(C(=O)CN2CCN(CC)CC2)C1 (stereo not drawn),cytotoxicity at 70.5 h,-24.3%
CSCCC(=O)N[C@H]1CC[C@H](Nc2nccc(-c3ccncc3)n2)C1,cytotoxicity at 70.5 h,23.8%
CCc1csc(CNc2nc3c(s2)c(C)nn3C)n1,cytotoxicity at 70.5 h,10.5%
Cc1cc(N2CCC(O)(C(=O)O)CC2)nc2ccccc12,cytotoxicity at 70.5 h,-11%
CCC(CO)N(Cc1cccs1)C(=O)CSC (stereo not drawn),cytotoxicity at 70.5 h,11.9%
Cc1nccc(N[C@H]2CN(C(=O)CN3CCCC3=O)C[C@@H]2C(C)C)n1,cytotoxicity at 70.5 h,-19.5%
CCCn1ncc(CN2CCCC(C(=O)c3ccc(SC)cc3)C2)c1C (stereo not drawn),cytotoxicity at 70.5 h,-9.31%
CN(Cc1ccno1)C(=O)c1cccc(CC2CCNCC2)c1,cytotoxicity at 70.5 h,6.56%
CCN1CCCC1CNC(=O)c1cc(COc2ccccc2F)[nH]n1 (stereo not drawn),cytotoxicity at 70.5 h,-4.57%
Cc1cc(C)c2c(N3CCC(C(=O)N4CCCC4)CC3)ncnc2n1,cytotoxicity at 70.5 h,-7.41%
CC(C)N1CC2(CCCN(Cc3noc(C4CCCC4)n3)C2)CCC1=O (stereo not drawn),cytotoxicity at 70.5 h,3.06%
CCc1cc(C(=O)N2CCC3(CCCN(CCOC)C3=O)C2)cs1 (stereo not drawn),cytotoxicity at 70.5 h,-9.21%
CCN1CC2(CCC1=O)CCN(Cc1nncn1C(C)C)CC2,cytotoxicity at 70.5 h,-5.12%
CCCOCC(=O)N1CCc2c(cccc2S(=O)(=O)N2CCOCC2)C1,cytotoxicity at 70.5 h,19.4%
Cc1nccc(-c2ccccc2)c1C(=O)N1CCC2(CN(C)C(=O)O2)C1 (stereo not drawn),cytotoxicity at 70.5 h,-5.07%
CCc1ncc(C(=O)N2CC(Oc3ccccc3Cl)C2)cn1,cytotoxicity at 70.5 h,10.7%
O=C(Cc1ccncc1)N1C[C@H]2CC[C@@H]1CN(Cc1cccnc1)C2,cytotoxicity at 70.5 h,8.28%
CCC(C(=O)NCc1nc(C)cc(C(F)(F)F)n1)n1cccn1 (stereo not drawn),cytotoxicity at 70.5 h,-11.3%
COc1cccc(-c2n[nH]c3c2CN(C(=O)c2cccc(=O)[nH]2)CC3)c1,cytotoxicity at 70.5 h,-6.52%
CCN(CC1CCCN(CCc2cccc(OC)c2)C1)C(=O)CO (stereo not drawn),cytotoxicity at 70.5 h,-0.648%
CN1CCN(C[C@@H]2CN(C(=O)NCC3CCCCC3)C[C@@H]2CO)CC1,cytotoxicity at 70.5 h,27.6%
CCC1(C(=O)O)CCCN(C(=O)c2ccc(N3CCN(C)CC3)cc2)C1 (stereo not drawn),cytotoxicity at 70.5 h,21.4%
CCCc1cc(C(=O)N2C[C@H]3CCC[C@@]3(CO)C2)[nH]n1,cytotoxicity at 70.5 h,-7.84%
CC(C)Cc1cc(-c2cc(-c3ccc[nH]3)nc(N)c2C#N)n[nH]1,cytotoxicity at 70.5 h,21.1%
CCCSCC(=O)N1C[C@@H](NC(C)=O)[C@H](c2ccc(OC)cc2)C1,cytotoxicity at 70.5 h,-19.4%
O[C@H]1[C@H](n2cc(-c3cncnc3)nn2)c2ccccc2C12CCNCC2,cytotoxicity at 70.5 h,-5.02%
CC(C)=CCN1C[C@H]2CC[C@@H]1CN(CCC(=O)NCc1ccco1)C2,cytotoxicity at 70.5 h,30.2%
c1ccc(C2CCCN2C2CSCCSC2)nc1 (stereo not drawn),cytotoxicity at 70.5 h,-4.87%
CCC(CO)N(Cc1ccco1)C(=O)c1cccnc1NC (stereo not drawn),cytotoxicity at 70.5 h,-2.71%
CCSCCC(=O)NCc1cc2n(n1)CCN(C(=O)N(C)C)C2,cytotoxicity at 70.5 h,-6.68%
CC(=O)c1ccc(N2CCC(CO)(CCOc3ccccc3)CC2)nc1,cytotoxicity at 70.5 h,-11%
Cc1nccnc1N1CC[C@@H](NC(=O)c2cnccn2)[C@H](O)C1,cytotoxicity at 70.5 h,-8.55%
COc1ccc(OCc2nc(C(=O)N3CC[C@H](O)[C@@H](O)C3)co2)cc1,cytotoxicity at 70.5 h,-8.88%
Cc1nc(N2CC[C@@H](NC(=O)c3cnccn3)[C@H](O)C2)c2ccsc2n1,cytotoxicity at 70.5 h,-3.33%
COC(=O)CCC(=O)N1CCc2[nH]nc(-c3ccc(F)c(F)c3)c2C1,cytotoxicity at 70.5 h,-8.06%
COCCn1ccnc1C1CCCN(C(=O)CSCC2CC2)C1 (stereo not drawn),cytotoxicity at 70.5 h,-3.02%
Cc1ccc([C@@H]2CN(S(=O)(=O)c3cccs3)C[C@H]2N(C)C)cc1,cytotoxicity at 70.5 h,-2.64%
CN1CCN(C[C@@H]2CN(C(=O)c3ccccc3C#N)C[C@@H]2CO)CC1,cytotoxicity at 70.5 h,13.9%
CC(C)C(=O)NCC(=O)N(C)C1CCCN(CCc2ccccc2)C1 (stereo not drawn),cytotoxicity at 70.5 h,-5.89%
CC(=O)c1cc(CN2C[C@H]3CC[C@@H]2CN(S(=O)(=O)N(C)C)C3)cs1,cytotoxicity at 70.5 h,12.5%
Cc1cc(CN2CCN(C(=O)C(C)C)[C@@H]3CS(=O)(=O)C[C@@H]32)ccc1F,cytotoxicity at 70.5 h,-2.32%
Cc1cc(CC(=O)N2CCCC2c2nc(C(C)C)no2)on1 (stereo not drawn),cytotoxicity at 70.5 h,5.26%
CCOCC(=O)N1C[C@@H](NC(C)=O)[C@H](c2ccc(OC)cc2)C1,cytotoxicity at 70.5 h,-8.31%
CCC(O)CNC(=O)c1coc(COc2ccc3sc(C)nc3c2)n1 (stereo not drawn),cytotoxicity at 70.5 h,12.2%
Cc1cc(N(C)Cc2cc(C)on2)n2nc(C)c(C)c2n1,cytotoxicity at 70.5 h,-5.61%
O=C(CCN1CCCC1=O)NCc1cccnc1Oc1ccccc1,cytotoxicity at 70.5 h,-3.36%
Cc1nsc(NC(=O)N2CCN(Cc3ccc(F)cc3)C(=O)C2)n1,cytotoxicity at 70.5 h,-13.5%
COCCNc1nc(C2CCCC2)nc2c1CCNCC2,cytotoxicity at 70.5 h,2.05%
CC(C)C(=O)NCCNc1nccc(-c2cc(C(=O)O)ccn2)n1,cytotoxicity at 70.5 h,-0.446%
CCNC(=O)N1CCN(Cc2nc3ccccc3[nH]2)[C@@H]2CS(=O)(=O)C[C@@H]21,cytotoxicity at 70.5 h,-9.34%
N#Cc1c(SCCN2CCCCC2)sc2c(O)cc(O)nc12,cytotoxicity at 70.5 h,17.9%
CCc1nc(-c2cccc(C(=O)O)c2)no1,cytotoxicity at 70.5 h,16.3%
CSCCC(NC(=O)c1nc(SC)ncc1Cl)C(=O)O (stereo not drawn),cytotoxicity at 70.5 h,-0.19%
Cc1cc(C)n(C(=O)Cn2nc(C)c(I)c2C)n1,cytotoxicity at 70.5 h,-7.22%
CC1=C(C#N)C(=O)NC(=O)/C1=C\c1c(C)nn(-c2ccc(C)cc2)c1O,cytotoxicity at 70.5 h,-2.65%
CCn1nc2nc(SCC(=O)O)cc(C(F)F)c2c1C,cytotoxicity at 70.5 h,-5.31%
CCn1cc(N)c(-c2nnc3n2CCCC3)n1,cytotoxicity at 70.5 h,-2.65%
Cn1nccc1CNC(=O)CCn1nc(C(F)(F)F)cc1C1CC1,cytotoxicity at 70.5 h,-4.88%
Cn1nccc1CNC(=O)CCn1nc(C(F)(F)F)c(Cl)c1C1CC1,cytotoxicity at 70.5 h,-3.15%
Cc1cc(C)n(NC(=O)c2ccccc2C)c(=O)c1,cytotoxicity at 70.5 h,-3.12%
Cn1ncc(NC(=O)c2noc3c2CCCC3)c1C(=O)N1CCCCC1,cytotoxicity at 70.5 h,-6.23%
COc1ccc(N(c2ccccc2)c2ccc(C(=O)O)s2)cc1,cytotoxicity at 70.5 h,-0.368%
O=C1CCC(=O)N1c1nn(Cc2c(F)cccc2Cl)cc1Cl,cytotoxicity at 70.5 h,6.93%
CCn1ncc(-c2cc(C(F)F)n3nc(CCC(=O)O)nc3n2)c1C,cytotoxicity at 70.5 h,-1.79%
CCN(CC)C(=O)c1c(Cl)cnn1CC,cytotoxicity at 70.5 h,-0.536%
NC1C=C(C(F)(F)F)NC=C1c1ccccc1 (stereo not drawn),cytotoxicity at 70.5 h,-0.126%
CC(C)c1ccc(-c2nonc2N)cc1,cytotoxicity at 70.5 h,1.97%
CC(C)c1cc(CN2CCC(N)CC2)on1,cytotoxicity at 70.5 h,19.4%
CC(C)c1cc(CN2CCC(CC(=O)O)CC2)no1,cytotoxicity at 70.5 h,-2.18%
CCN(CC)C(=O)c1c(Br)cnn1CC,cytotoxicity at 70.5 h,-2.09%
CC(C)(C)C(Cn1cccn1)NC(=O)c1ccco1 (stereo not drawn),cytotoxicity at 70.5 h,-2.47%
O=C1CCC(=O)N1c1nn(Cc2cccc(F)c2)cc1Cl,cytotoxicity at 70.5 h,-0.348%
Cc1cc(I)c2c(c1)C(=O)C(CN1CCCC1)(CN1CCCC1)CO2,cytotoxicity at 70.5 h,-0.395%
Cc1nnc(SCc2ccccn2)s1,cytotoxicity at 70.5 h,1.03%
Fc1ccccc1C1NCCc2cc3c(cc21)OCCO3 (stereo not drawn),cytotoxicity at 70.5 h,0.151%
Cc1cc(C)n(CNc2nonc2C(N)=O)n1,cytotoxicity at 70.5 h,36%
O=C(CN1CCCCC1)Nc1ncc(Br)cc1Br,cytotoxicity at 70.5 h,48.9%
O=C(O)CCc1nc2nccc(-c3ccc(F)cc3)n2n1,cytotoxicity at 70.5 h,20.1%
Cn1cc(-c2cc(C(F)(F)F)n(CCCN)n2)cn1,cytotoxicity at 70.5 h,20%
CCC(CCN)n1ccc(C(F)(F)F)n1 (stereo not drawn),cytotoxicity at 70.5 h,4.74%
COc1ccccc1CNc1cnn(CC(F)F)c1,cytotoxicity at 70.5 h,1.56%
COC(=O)c1ccc(CNCc2ccn(C)n2)cc1,cytotoxicity at 70.5 h,17.7%
O=C(O)CCc1nc2nccc(C(F)(F)F)n2n1,cytotoxicity at 70.5 h,0.723%
O=C(O)c1cc(-c2cccs2)nc2c(Cl)cnn12,cytotoxicity at 70.5 h,-5.65%
N#Cc1cc2c(nc1SCc1cc(O)nc(O)n1)CCCC2,cytotoxicity at 70.5 h,-7.89%
COC(=O)N1CC(C)=C(C)CN1C(=O)Nc1ccc(Cl)cc1,cytotoxicity at 70.5 h,3.18%
Cc1cc(Br)c(O)c(-c2nc(N3CCCCC3)sc2C)c1,cytotoxicity at 70.5 h,13.1%
